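Interpolation was linear, between the two tested concentrations surrounding the appropriate level; five concentrations were tested over 48 hours in 96-well plates. GI50 = concentration required for 50% inhibition of growth.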 The source made the active and inactive calls. No stated cut-off is given here; in the data, active = GI50 up to about 1.1 µM and inactive = higher.
What was measured:
Experiment in all cases: inhibition of tumour cell growth, NCI panel, 48 h
A549 = system: A549
ACHN = system: ACHN
BT-549 = system: BT-549
CAKI-1 = system: CAKI-1
CCRF-CEM = system: CCRF-CEM
COLO 205 = system: COLO 205
DU-145 = system: DU-145
EKVX = system: EKVX
HCC 2998 = system: HCC 2998
HCT-116 = system: HCT-116
HCT-15 = system: HCT-15
HL-60 = system: HL-60
HOP-92 = system: HOP-92
HT-29 = system: HT-29
Hs-578T = system: Hs-578T
IGROV-1 = system: IGROV-1
KM12 = system: KM12
LOX IMVI = system: LOX IMVI
M14 = system: M14
MCF7 = system: MCF7
MDA-MB-231 = system: MDA-MB-231
MDA-MB-435 = system: MDA-MB-435
MDA-N = system: MDA-N
MOLT-4 = system: MOLT-4
NCI-H23 = system: NCI-H23
NCI-H460 = system: NCI-H460
NCI-H522 = system: NCI-H522
NCI/ADR-RES = system: NCI/ADR-RES
OVCAR-3 = system: OVCAR-3
OVCAR-4 = system: OVCAR-4
OVCAR-5 = system: OVCAR-5
OVCAR-8 = system: OVCAR-8
PC-3 = system: PC-3
RPMI-8226 = system: RPMI-8226
RXF 393 = system: RXF 393
SF-268 = system: SF-268
SF-295 = system: SF-295
SF-539 = system: SF-539
SK-MEL-28 = system: SK-MEL-28
SK-MEL-2 = system: SK-MEL-2
SK-MEL-5 = system: SK-MEL-5
SK-OV-3 = system: SK-OV-3
SN12C = system: SN12C
SNB-19 = system: SNB-19
SNB-75 = system: SNB-75
SR = system: SR
SW-620 = system: SW-620
T47D = system: T47D
TK-10 = system: TK-10
U-251 = system: U-251
UACC-257 = system: UACC-257
UACC-62 = system: UACC-62
UO-31 = system: UO-31
786-0 = system: 786-0
HOP-62 = system: HOP-62
K562 = system: K562
Malme-3M = system: Malme-3M
NCI-H226 = system: NCI-H226

Structure (SMILES): CCOC1=NC(C(F)(F)F)(C(F)(F)F)N=C(N2CCOCC2)O1
- GI50 (A549): > 100 µM (inactive)
- GI50 (ACHN): > 100 µM (inactive)
- GI50 (BT-549): > 100 µM (inactive)
- GI50 (CAKI-1): > 100 µM (inactive)
- GI50 (CCRF-CEM): > 100 µM (inactive)
- GI50 (COLO 205): > 100 µM (inactive)
- GI50 (DU-145): > 100 µM (inactive)
- GI50 (EKVX): > 100 µM (inactive)
- GI50 (HCC 2998): > 100 µM (inactive)
- GI50 (HCT-116): > 100 µM (inactive)
- GI50 (HCT-15): > 100 µM
- GI50 (HL-60): 89.5 µM (inactive)
- GI50 (HOP-92): > 100 µM (inactive)
- GI50 (HT-29): > 100 µM (inactive)
- GI50 (Hs-578T): > 100 µM (inactive)
- GI50 (IGROV-1): > 100 µM (inactive)
- GI50 (KM12): > 100 µM (inactive)
- GI50 (LOX IMVI): > 100 µM (inactive)
- GI50 (M14): > 100 µM (inactive)
- GI50 (MCF7): > 100 µM (inactive)
- GI50 (MDA-MB-231): > 100 µM (inactive)
- GI50 (MDA-MB-435): > 100 µM (inactive)
- GI50 (MDA-N): > 100 µM (inactive)
- GI50 (MOLT-4): > 100 µM (inactive)
- GI50 (NCI-H23): > 100 µM (inactive)
- GI50 (NCI-H460): > 100 µM (inactive)
- GI50 (NCI-H522): > 100 µM (inactive)
- GI50 (NCI/ADR-RES): > 100 µM (inactive)
- GI50 (OVCAR-3): > 100 µM (inactive)
- GI50 (OVCAR-4): > 100 µM (inactive)
- GI50 (OVCAR-5): > 100 µM (inactive)
- GI50 (OVCAR-8): > 100 µM (inactive)
- GI50 (PC-3): > 100 µM (inactive)
- GI50 (RPMI-8226): > 100 µM (inactive)
- GI50 (RXF 393): 80.7 µM (inactive)
- GI50 (SF-268): > 100 µM (inactive)
- GI50 (SF-295): > 100 µM (inactive)
- GI50 (SF-539): > 100 µM (inactive)
- GI50 (SK-MEL-28): > 100 µM (inactive)
- GI50 (SK-MEL-2): > 100 µM (inactive)
- GI50 (SK-MEL-5): > 100 µM (inactive)
- GI50 (SK-OV-3): > 100 µM (inactive)
- GI50 (SN12C): > 100 µM (inactive)
- GI50 (SNB-19): > 100 µM (inactive)
- GI50 (SNB-75): > 100 µM (inactive)
- GI50 (SR): > 100 µM (inactive)
- GI50 (SW-620): > 100 µM (inactive)
- GI50 (T47D): 27 µM (inactive)
- GI50 (TK-10): > 100 µM (inactive)
- GI50 (U-251): > 100 µM (inactive)
- GI50 (UACC-257): > 100 µM (inactive)
- GI50 (UACC-62): 24 µM (inactive)
- GI50 (UO-31): > 100 µM (inactive)

Structure (SMILES): COCOc1c(C(O[Si](C)(C)C(C)(C)C)c2cnc(Sc3ccccc3)n2C)ccc(OC)c1OC (configuration not stated)
- GI50 (786-0): 1.82 µM (inactive)
- GI50 (A549): 1.88 µM (inactive)
- GI50 (ACHN): 2.42 µM (inactive)
- GI50 (BT-549): 1.69 µM (inactive)
- GI50 (CAKI-1): 3.03 µM (inactive)
- GI50 (CCRF-CEM): 2.84 µM (inactive)
- GI50 (DU-145): > 100 µM (inactive)
- GI50 (EKVX): 2.53 µM (inactive)
- GI50 (HCC 2998): 1.84 µM (inactive)
- GI50 (HCT-116): 1.6 µM (inactive)
- GI50 (HCT-15): 1.94 µM
- GI50 (HL-60): 1.87 µM (inactive)
- GI50 (HOP-62): 1.66 µM (inactive)
- GI50 (HOP-92): 2.13 µM (inactive)
- GI50 (HT-29): 1.93 µM (inactive)
- GI50 (Hs-578T): 2.31 µM (inactive)
- GI50 (IGROV-1): 1.97 µM (inactive)
- GI50 (K562): 2.75 µM (inactive)
- GI50 (KM12): 1.92 µM (inactive)
- GI50 (LOX IMVI): 1.84 µM (inactive)
- GI50 (MCF7): 1.76 µM (inactive)
- GI50 (MDA-MB-231): 1.66 µM (inactive)
- GI50 (MDA-MB-435): 1.75 µM (inactive)
- GI50 (MDA-N): 1.77 µM (inactive)
- GI50 (MOLT-4): 2.54 µM (inactive)
- GI50 (Malme-3M): 2.45 µM (inactive)
- GI50 (NCI-H226): 1.85 µM (inactive)
- GI50 (NCI-H23): > 100 µM (inactive)
- GI50 (NCI-H460): 1.53 µM (inactive)
- GI50 (NCI-H522): 1.62 µM (inactive)
- GI50 (NCI/ADR-RES): 1.35 µM (inactive)
- GI50 (OVCAR-3): 1.7 µM (inactive)
- GI50 (OVCAR-4): 3 µM (inactive)
- GI50 (OVCAR-5): > 100 µM (inactive)
- GI50 (OVCAR-8): 1.43 µM (inactive)
- GI50 (PC-3): 1.55 µM (inactive)
- GI50 (RPMI-8226): 1.85 µM (inactive)
- GI50 (RXF 393): 1.36 µM (inactive)
- GI50 (SF-268): 1.64 µM (inactive)
- GI50 (SF-295): 2.65 µM (inactive)
- GI50 (SF-539): 1.97 µM (inactive)
- GI50 (SK-MEL-28): 1.84 µM (inactive)
- GI50 (SK-MEL-2): 1.31 µM (inactive)
- GI50 (SK-MEL-5): 1.82 µM (inactive)
- GI50 (SK-OV-3): 2.05 µM (inactive)
- GI50 (SN12C): 1.78 µM (inactive)
- GI50 (SNB-19): 2.14 µM (inactive)
- GI50 (SNB-75): 2.2 µM (inactive)
- GI50 (SR): 2.47 µM (inactive)
- GI50 (SW-620): 1.93 µM (inactive)
- GI50 (T47D): 0.256 µM (active)
- GI50 (TK-10): 4.28 µM (inactive)
- GI50 (U-251): 1.64 µM (inactive)
- GI50 (UACC-257): 2.25 µM (inactive)
- GI50 (UACC-62): 1.65 µM (inactive)
- GI50 (UO-31): 1.83 µM (inactive)

Structure (SMILES): O=c1oc2c/c(=C\c3ccc([N+](=O)[O-])cc3)c(=O)c3cccc1c3-2
- GI50 (786-0): > 100 µM (inactive)
- GI50 (A549): > 100 µM (inactive)
- GI50 (ACHN): > 100 µM (inactive)
- GI50 (BT-549): 54.6 µM (inactive)
- GI50 (CCRF-CEM): 36.8 µM (inactive)
- GI50 (COLO 205): > 100 µM (inactive)
- GI50 (DU-145): > 100 µM (inactive)
- GI50 (EKVX): > 100 µM (inactive)
- GI50 (HCC 2998): > 100 µM (inactive)
- GI50 (HCT-116): > 100 µM (inactive)
- GI50 (HCT-15): > 100 µM
- GI50 (HL-60): > 100 µM (inactive)
- GI50 (HOP-62): 38.6 µM (inactive)
- GI50 (HOP-92): 52 µM (inactive)
- GI50 (HT-29): > 100 µM (inactive)
- GI50 (Hs-578T): > 100 µM (inactive)
- GI50 (IGROV-1): > 100 µM (inactive)
- GI50 (K562): > 100 µM (inactive)
- GI50 (KM12): 83.6 µM (inactive)
- GI50 (LOX IMVI): 35.2 µM (inactive)
- GI50 (M14): > 100 µM (inactive)
- GI50 (MCF7): > 100 µM (inactive)
- GI50 (MDA-MB-231): > 100 µM (inactive)
- GI50 (MDA-MB-435): > 100 µM (inactive)
- GI50 (MDA-N): > 100 µM (inactive)
- GI50 (MOLT-4): > 100 µM (inactive)
- GI50 (Malme-3M): > 100 µM (inactive)
- GI50 (NCI-H23): > 100 µM (inactive)
- GI50 (NCI-H460): > 100 µM (inactive)
- GI50 (NCI-H522): 28.1 µM (inactive)
- GI50 (NCI/ADR-RES): > 100 µM (inactive)
- GI50 (OVCAR-3): 48.5 µM (inactive)
- GI50 (OVCAR-5): > 100 µM (inactive)
- GI50 (OVCAR-8): 30.8 µM (inactive)
- GI50 (PC-3): > 100 µM (inactive)
- GI50 (RPMI-8226): > 100 µM (inactive)
- GI50 (SF-268): 39.8 µM (inactive)
- GI50 (SF-295): > 100 µM (inactive)
- GI50 (SK-MEL-28): > 100 µM (inactive)
- GI50 (SK-MEL-2): > 100 µM (inactive)
- GI50 (SK-MEL-5): > 100 µM (inactive)
- GI50 (SK-OV-3): > 100 µM (inactive)
- GI50 (SN12C): > 100 µM (inactive)
- GI50 (SNB-19): > 100 µM (inactive)
- GI50 (SNB-75): 22 µM (inactive)
- GI50 (SR): > 100 µM (inactive)
- GI50 (SW-620): > 100 µM (inactive)
- GI50 (T47D): > 100 µM (inactive)
- GI50 (TK-10): 21.9 µM (inactive)
- GI50 (U-251): 28.6 µM (inactive)
- GI50 (UACC-257): > 100 µM (inactive)
- GI50 (UACC-62): > 100 µM (inactive)
- GI50 (UO-31): > 100 µM (inactive)
